# Measurements published in article PMC10405867 (Journal of Enzyme Inhibition and Medicinal Chemistry, 2023).
# Target: SARS-CoV-2 Mpro (Severe acute respiratory syndrome coronavirus 2, UniProt P0DTD1)
# Experiment: biochemical
# Format: biochemical
Compound,IC50 [µM],fold decreased 3CL-Pro inhibitory activity than unsubstituted counterpart 6a
"NS(=O)(=O)c1ccc(NC(=O)Cn2cc(CN3C(=O)C(=O)c4ccccc43)nn2)cc1 [6a, 2–(4-((2,3-Dioxoindolin-1-yl)methyl)-1H-1,2,3-triazol-1-yl)-N-(4-sulfamoylphenyl)acetamide]",0.562 ± 0.005,–
"NS(=O)(=O)c1ccc(NC(=O)Cn2cc(CN3C(=O)C(=O)c4cc(OC(F)(F)F)ccc43)nn2)cc1 [6d, 2–(4-((2,3-Dioxo-5-(trifluoromethoxy)indolin-1-yl)methyl)-1H-1,2,3-triazol-1-yl)-N-(4-sulfamoylphenyl)acetamide]",1.05 ± 0.053,about 2 fold
"CC(=O)c1ccc(NC(=O)Cn2cc(CN3C(=O)C(=O)c4ccccc43)nn2)cc1 [10a, N-(4-Acetylphenyl)-2–(4-((2,3-dioxoindolin-1-yl)methyl)-1H-1,2,3-triazol-1-yl)acetamide]",12.3 ± 0.73,–
"COc1ccc2c(c1)C(=O)C(=O)N2Cc1cn(CC(=O)Nc2ccc(C(C)=O)cc2)nn1 [10b, N-(4-Acetylphenyl)-2–(4-((5-methoxy-2,3-dioxoindolin-1-yl)methyl)-1H-1,2,3-triazol-1-yl)acetamide]",17.1 ± 0.815,–
